Structures can show the parent of a compound that is named as a salt.
Experiment: collision cross section in nitrogen (drift tube, single-field); higher = larger gas-phase ion size
[1] = ion source: APCI, ion mode: Positive, ion type: [M]+ (permanent cation)
[2] = ion source: ESI, ion mode: Positive, ion type: [M]+ (permanent cation)
[3] = ion type: [M-H], ion source: ESI, ion mode: Negative
[4] = ion type: [M+H], ion source: APCI, ion mode: Positive
[5] = ion type: [M+H], ion source: ESI, ion mode: Positive
[6] = ion type: [M+Na], ion source: ESI, ion mode: Positive
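Further: chemical standards at 10 µM analysed by drift tube IMS-QTOF MS in about 3.95 torr nitrogen, mean of duplicate injections differing ≤1%, mass error below 10 ppm.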

collision cross section in nitrogen [3]	collision cross section in nitrogen [4]	collision cross section in nitrogen [5]	collision cross section in nitrogen [6]	Structure (SMILES)	collision cross section in nitrogen [1]	collision cross section in nitrogen [2]
				CCCCCCCCCCCCCCCC[n+]1ccccc1 [Cetylpyridinium bromide]	193.4 Å²	194.3 Å²
				CCCCCCCCCCCCCCCC[n+]1ccccc1 [Cetylpyridinium chloride]	193.3 Å²	193.7 Å²
145.8 Å²				C=C(C)C(=O)Nc1ccc(Cl)c(Cl)c1 [Chloranocryl]		
233.6 Å²	222.8 Å²	224.1 Å²	228.3 Å²	N=C(NCCCCCCNC(=N)NC(=N)Nc1ccc(Cl)cc1)NC(=N)Nc1ccc(Cl)cc1 [Chlorhexidine diacetate]		
233.2 Å²	222.7 Å²	222.9 Å²	227.5 Å²	N=C(NCCCCCCNC(=N)NC(=N)Nc1ccc(Cl)cc1)NC(=N)Nc1ccc(Cl)cc1 [Chlorhexidine dihydrochloride]		
	222.9 Å²	222.4 Å²	226.5 Å²	N=C(NCCCCCCNC(=N)NC(=N)Nc1ccc(Cl)cc1)NC(=N)Nc1ccc(Cl)cc1 [Chlorhexidine]		
	175.3 Å²	174.9 Å²	183.1 Å²	CN(C)C(=O)Nc1ccc(Oc2ccc(Cl)cc2)cc1 [Chloroxuron]		
	164 Å²	164.6 Å²		CN(C)CCC(c1ccc(Cl)cc1)c1ccccn1 (centres undefined) [Chlorpheniramine maleate]		
	170.8 Å²	171.2 Å²		CN(C)CCCN1c2ccccc2Sc2ccc(Cl)cc21 [Chlorpromazine hydrochloride]		
				C[N+](C)(C)CCO [Choline hydroxide]		117.7 Å²
157.7 Å²	155.4 Å²	154.8 Å²		O=c1cc(-c2ccccc2)oc2cc(O)cc(O)c12 [Chrysin]		
			155.6 Å²	CCOCCOC(=O)C=Cc1ccc(OC)cc1 [Cinoxate]		
171.9 Å²				CC(C)(Oc1ccc(C2CC2(Cl)Cl)cc1)C(=O)O (centres undefined) [Ciprofibrate]		
			175.4 Å²	CCOC(=O)CC(CC(=O)OCC)(OC(C)=O)C(=O)OCC [Citric acid, triethyl ester, acetate]		
148.8 Å²				CC(C)=CCCC(C)CC(=O)O (centres undefined) [Citronellic acid]		
159.5 Å²	157.2 Å²	157 Å²	165.8 Å²	Nc1nc(Cl)nc2c1ncn2[C@H]1C[C@H](O)[C@@H](CO)O1 [Cladribine]		
		178 Å²	176.2 Å²	C#CCOC(=O)[C@@H](C)Oc1ccc(Oc2ncc(Cl)cc2F)cc1 [Clodinafop-propargyl]		

collision cross section in nitrogen [3]	collision cross section in nitrogen [4]	collision cross section in nitrogen [5]	collision cross section in nitrogen [6]	Structure (SMILES)	collision cross section in nitrogen [1]	collision cross section in nitrogen [2]
160.5 Å²	159.2 Å²	159 Å²	175.3 Å²	CCc1c(C(=O)O)c(=O)cnn1-c1ccc(Cl)cc1 [Clofencet-potassium]		
	174.5 Å²	174.5 Å²		CN(C)CCCN1c2ccccc2CCc2ccc(Cl)cc21 [Clomipramine hydrochloride]		
145.8 Å²	147.1 Å²	146.5 Å²		Clc1cccc(Cl)c1NC1=NCCN1 [Clonidine hydrochloride]		
	182.1 Å²	181.9 Å²	195.1 Å²	CCCCCC(C)OC(=O)COc1ccc(Cl)c2cccnc12 (centres undefined) [Cloquintocet-mexyl]		
190.2 Å²	191 Å²	190.7 Å²	192 Å²	CCOc1nc(F)cc2nc(S(=O)(=O)Nc3c(Cl)cccc3C(=O)OC)nn12 [Cloransulam-methyl]		
			212.4 Å²	C[C@]12C[C@H](O)[C@H]3[C@@H](CCC4=CC(=O)CC[C@@]43C)[C@@H]1CC[C@@H]2C(=O)CO [Corticosterone]		
		144.8 Å²		CN1C(=O)CC[C@H]1c1cccnc1 [Cotinine]		
186 Å²		208.8 Å²	211.8 Å²	O=C(O)c1cc(=O)c2c(OCC(O)COc3cccc4oc(C(=O)O)cc(=O)c34)cccc2o1 [Cromolyn sodium]		
	145.3 Å²	145.7 Å²	157 Å²	CC=CC(=O)N(CC)c1ccccc1C [Crotamiton]		
187.7 Å²	202.8 Å²			COc1cc(/C=C/C(=O)CC(=O)/C=C/c2ccc(O)c(OC)c2)ccc1O [Curcumin]		
	162.8 Å²	162.4 Å²		CSc1nc(NC2CC2)nc(NC(C)(C)C)n1 [Cybutryne]		
139.6 Å²				O=S(=O)(O)NC1CCCCC1 [Cyclamic acid]		
156.3 Å²				O=C(O)C1(C(=O)Nc2ccc(Cl)cc2Cl)CC1 [Cyclanilide]		
	143.1 Å²	143.5 Å²	156.7 Å²	N=c1ccn2c(n1)O[C@H]1[C@H](O)[C@@H](CO)O[C@H]12 [Cyclocytidine]		
201.5 Å²		201.9 Å²		CC(=O)O[C@]1(C(C)=O)CC[C@H]2[C@@H]3C=C(Cl)C4=CC(=O)[C@@H]5C[C@@H]5[C@]4(C)[C@H]3CC[C@@]21C [Cyproterone acetate]		
			157.1 Å²	Nc1ccn([C@@H]2O[C@H](CO)[C@@H](O)[C@@H]2O)c(=O)n1 [Cytarabine hydrochloride]		
			156.9 Å²	Nc1ccn([C@@H]2O[C@H](CO)[C@@H](O)[C@@H]2O)c(=O)n1 [Cytarabine]		

Structure (SMILES)	collision cross section in nitrogen [3]	collision cross section in nitrogen [4]	collision cross section in nitrogen [5]	collision cross section in nitrogen [6]	collision cross section in nitrogen [1]	collision cross section in nitrogen [2]
CON(C)C(=O)Nc1ccc(Br)c(Cl)c1 [Chlorbromuron]	152.8 Å²					
Cc1cc(Cl)ccc1N=CN(C)C [Chlordimeform hydrochloride]		146.2 Å²				
Cc1cc(Cl)ccc1N=CN(C)C [Chlordimeform]		145.6 Å²	146.4 Å²			
O=C(O)C1C(C(=O)O)C2(Cl)C(Cl)=C(Cl)C1(Cl)C2(Cl)Cl (centres undefined) [Chlorendic acid]	159 Å²					
CCOP(=O)(OCC)OC(=CCl)c1ccc(Cl)cc1Cl [Chlorfenvinphos]		168.7 Å²	170.1 Å²	181 Å²		
O=C(NC(=O)c1c(F)cccc1F)Nc1cc(Cl)c(Oc2ncc(C(F)(F)F)cc2Cl)c(Cl)c1 [Chlorfluazuron]	224.4 Å²		221.8 Å²	225.6 Å²		
Nc1cnn(-c2ccccc2)c(=O)c1Cl [Chloridazon]	143.7 Å²	143.6 Å²	144 Å²	158 Å²		
CN1C(=O)CCS(=O)(=O)C1c1ccc(Cl)cc1 (centres undefined) [Chlormezanone]	154.1 Å²					
O=C1c2ccccc2C(=O)C1C(=O)C(c1ccccc1)c1ccc(Cl)cc1 (centres undefined) [Chlorophacinone]	193.2 Å²					
CC(C)OC(=O)Nc1cccc(Cl)c1 [Chlorpropham]	148.4 Å²					
CCOP(=O)(OCC)Oc1nc(Cl)c(Cl)cc1Cl [Chlorpyrifos oxon]		162.3 Å²	162.7 Å²	171 Å²		
NC(=S)c1c(Cl)cccc1Cl [Chlorthiamid]	135.9 Å²					
Cc1ccccc1CO[C@@H]1C[C@@]2(C(C)C)CC[C@]1(C)O2 [Cinmethylin]				169.7 Å²		
CCSC(C)CC1CC(=O)C(C(CC)=NOC/C=C/Cl)=C(O)C1 (centres undefined) [Clethodim]	184.6 Å²	187.7 Å²	187.7 Å²	184.9 Å²		
Oc1ccc(Cl)cc1Cc1ccccc1 [Clorophene]	149.3 Å²					
CN/C(=N\[N+](=O)[O-])NCc1cnc(Cl)s1 [Clothianidin]	151.8 Å²					
COc1cc2c(c(OC)c1OC)-c1ccc(OC)c(=O)cc1[C@@H](NC(C)=O)CC2 [Colchicine]	197.3 Å²	197 Å²	195.9 Å²	204.3 Å²		
O=[N+]([O-])O [Copper(II) nitrate trihydrate]	104.1 Å²					
Cc1ccccc1OP(=O)(Oc1ccccc1)Oc1ccccc1 [Cresyl diphenyl phosphate]		178.3 Å²	178 Å²	188.4 Å²		
CNP(=O)(OC)Oc1ccc(C(C)(C)C)cc1Cl (centres undefined) [Crufomate]		165.2 Å²	165 Å²	176.3 Å²		
CCNc1nc(Cl)nc(NC(C)(C)C#N)n1 [Cyanazine]		155.6 Å²	155.4 Å²			
O=P1(N(CCCl)CCCl)NCCCO1 (centres undefined) [Cyclophosphamide monohydrate]		148 Å²	147.6 Å²	154.6 Å²		
O=P1(N(CCCl)CCCl)NCCCO1 (centres undefined) [Cyclophosphamide]		147.8 Å²	147.7 Å²	154.6 Å²		
CCCCOC(=O)[C@@H](C)Oc1ccc(Oc2ccc(C#N)cc2F)cc1 [Cyhalofop-butyl]				191.2 Å²		
CC(C1CC1)C(O)(Cn1cncn1)c1ccc(Cl)cc1 (centres undefined) [Cyproconazole]		170.6 Å²	170.2 Å²			
Cc1cc(C2CC2)nc(Nc2ccccc2)n1 [Cyprodinil]		153.1 Å²	153.4 Å²			
Nc1nc(N)nc(NC2CC2)n1 [Cyromazine]		135.6 Å²	135.9 Å²			
